In US11040028B2, “Penicinotam derivative, preparation method and use thereof” (OCEAN UNIVERSITY OF CHINA, priority 2017, dated 2021):

Experiments:
Format in all cases: cell-based
[1] = system: human dermal fibroblasts CCC-ESF-1; assay: Anti-fibrosis activity test: inhibition of proliferation of human dermal fibroblasts CCC-ESF-1 (CCK-8); details: Fibroblast
Summary of the method: (§1)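 Proliferation read by CCK-8 (2 h, A450) after 48 h compound treatment of cells plated at 2×10^4 cells/mL and allowed 24 h attachment, triplicate per concentration. Inhibition rate derived from absorbance relative to untreated blank, with IC50 fitted; pirfenidone as positive control.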

BHK-21 cells = assay: Anti-fibrosis activity test: inhibition of BHK-21 cell proliferation (CCK-8); details: Mesocricetus auratus, BHK-21, 48 h
Summary of the method: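 Each concentration was tested in triplicate on adhered BHK-21 cells for 48 h, with pirfenidone as reference. A 2 h CCK-8 incubation preceded absorbance reading at 450 nm, and IC50 was obtained from percent inhibition versus blank.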

[2] = system: human embryonic lung fibroblast IMR-90; assay: Anti-fibrosis activity test: inhibition of proliferation of human embryonic lung fibroblast IMR-90 (CCK-8)
Summary of the method: as §1

[3] = system: human fibrosarcoma cells HT-1080; assay: Anti-fibrosis activity test: inhibition of proliferation of human fibrosarcoma cells HT-1080 (CCK-8); details: Homo sapiens, HT-1080, 48 h
Summary of the method: as §1

[4] = system: cardiac fibroblast RAT-iCell-C002; assay: Anti-fibrosis activity test: inhibition of proliferation of cardiac fibroblast RAT-iCell-C002 (CCK-8); details: Cardiac fibroblast, 48 h
Summary of the method: as §1

[5] = system: human hepatic stellate cells LX-2; assay: Anti-fibrosis activity test: inhibition of proliferation of human hepatic stellate cells LX-2 (CCK-8); details: Homo sapiens, 48 h
Summary of the method: as §1

[6] = system: human lung fibroblasts HFL1; assay: Anti-fibrosis activity test: inhibition of proliferation of human lung fibroblasts HFL1 (CCK-8); details: Homo sapiens, HFL1, 48 h
Summary of the method: as §1

[7] = system: mouse macrophages (RAW264.7); assay: Lipopolysaccharide-induced NO secretion in macrophages (Griess); details: Mus musculus, RAW264.7, 24 h, RAW264.7, LPS 1 μg/ml, a/b isomers given as first/second symbol, read-out: IC50 (μM), inhibition of lipopolysaccharide-induced NO secretion in macrophages
Summary of the method: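 Percent inhibition of NO release was measured by Griess absorbance at 548 nm in supernatants. Cells were mouse RAW264.7 macrophages in 10% FBS DMEM, treated with graded compound concentrations and activated by LPS (1 μg/ml) for 24 h.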

[8] = human dermal fibroblasts CCC-ESF-1, CCK-8, 48 hours
[9] = CCK-8, 48 hours after administration
[10] = human embryonic lung fibroblast IMR-90, CCK-8, 48 hours
[11] = human fibrosarcoma cells HT-1080, CCK-8, 48 hours
[12] = cardiac fibroblast RAT-iCell-C002, CCK-8, 48 hours
[13] = human hepatic stellate cells LX-2, CCK-8, 48 hours
[14] = human lung fibroblasts HFL1, CCK-8, 48 hours
[15] = Homo sapiens, CCC-ESF-1 cells, 48 h, CCK-8
[16] = Homo sapiens, IMR-90 cells, 48 h, CCK-8

| IC50 [3, 11] [mM] | IC50 [7] [µM] | IC50 ([3]; HT-1080 cells, 48 h, CCK-8) [mM] | Compound | IC50 [1, 8] [mM] | IC50 (BHK-21 cells; [9]) [mM] | IC50 [2, 10] [mM] | IC50 [4, 12] [mM] | IC50 [5, 13] [mM] | IC50 [6, 14] [mM] | IC50 [1, 15] [mM] | IC50 (BHK-21 cells; 48 h, CCK-8) [mM] | IC50 [2, 16] [mM] | IC50 ([4]; RAT-iCell-C002 cells, CCK-8) [mM] | IC50 ([5]; LX-2, 48 h, LX-2 cells, CCK-8) [mM] | IC50 ([6]; HFL1 cells, 48 h, CCK-8) [mM] |
| --- | --- | --- | --- | --- | --- | --- | --- | --- | --- | --- | --- | --- | --- | --- | --- |
| 0.05 to 5 | 1 to 10 |  | O=C1c2c([nH]c3ccc(F)cc3c2=O)-c2cccn21 [Compound 156a, 7-Fluoro-9H-pyrrolizino[1,2-b]quinoline-9,10(4H)-dione] | 0.05 to 5 | 0.05 to 5 | 0.05 to 5 | 0.05 to 5 | < 0.05 | < 0.05 |  |  |  |  |  |  |
|  | 0.1 to 1 | 0.05 to 5 | O=C1c2nc3ccccc3c(OCCN3CCNCC3)c2-c2cccn21 [Compound 792b, 11-(2-(piperazin-1-yl)ethoxy)-5H-pyrrolizino[2,1-b]quinolin-5-one] |  |  |  |  |  |  | < 0.05 | 0.05 to 5 | 0.05 to 5 | 0.05 to 5 | 0.05 to 5 | 0.05 to 5 |
| 0.05 to 5 | 1 to 10 |  | O=C1c2c(n(Cc3ccc(F)cc3)c3c(F)cccc3c2=O)-c2cccn21 [Compound 452a, 5-Fluoro-4-(4-fluorobenzyl)-9H-pyrrolizino[1,2-b]quinoline-9,10(4H)-dione] | 0.05 to 5 | 0.05 to 5 | 0.05 to 5 | 0.05 to 5 | < 0.05 | 0.05 to 5 |  |  |  |  |  |  |
| 0.05 to 5 | 1 to 10 |  | O=C1c2c(nc3cccc(C(F)(F)F)c3c2OCc2cccc(Cl)c2)-c2cccn21 [Compound 466b, 9-((3-chlorobenzyl)oxy)-8-(trifluoromethyl)-10H-pyrrolizino[1,2-b]quinolin-10-one] | 0.05 to 5 | 0.05 to 5 | 0.05 to 5 | 0.05 to 5 | 0.05 to 5 | 0.05 to 5 |  |  |  |  |  |  |
| 5 to 20 | 1 to 10 |  | O=C1c2c(n(Cc3ccc(Cl)cc3)c3cc(Cl)ccc3c2=O)-c2cccn21 [Compound 508a, 6-Chloro-4-(4-chlorobenzyl)-9H-pyrrolizino[1,2-b]quinoline-9,10(4H)-dione] | 0.05 to 5 | 0.05 to 5 | 0.05 to 5 | 0.05 to 5 | 0.05 to 5 | 0.05 to 5 |  |  |  |  |  |  |
|  | 1 to 10 | 0.05 to 5 | O=C1c2c(c(=O)c3ccccc3n2CCCN2CCCCC2)-c2cccn21 [Compound 786a, 6-(3-(Piperidin-1-yl)propyl)-5H-pyrrolizino[2,1-b]quinoline-5,11(6H)-dione] |  |  |  |  |  |  | 0.05 to 5 | 0.05 to 5 | 0.05 to 5 | 0.05 to 5 | 0.05 to 5 | 0.05 to 5 |
| 0.05 to 5 | 10 to 50 |  | O=C1c2c(n(Cc3ccc(F)cc3)c3c(F)c(N4CCNCC4)ccc3c2=O)-c2cccn21 [Compound 485a, 5-Fluoro-4-(4-fluorobenzyl)-6-(piperazin-1-yl)-9H-pyrrolizino[1,2-b]quinoline-9,10(4H)-dione] | 0.05 to 5 | 0.05 to 5 | 0.05 to 5 | 0.05 to 5 | 0.05 to 5 | 0.05 to 5 |  |  |  |  |  |  |
| < 0.05 | 1 to 10 |  | O=C1c2c(n(C(=O)c3ccco3)c3cc(N4CCNCC4)c(F)cc3c2=O)-c2cccn21 [Compound 343a, 7-Fluoro-4-(furan-2-carbonyl)-6-(piperazin-1-yl)-9H-pyrrolizino[1,2-b]quinoline-9,10(4H)-dione] | 0.05 to 5 | 0.05 to 5 | 0.05 to 5 | 0.05 to 5 | 0.05 to 5 | 0.05 to 5 |  |  |  |  |  |  |
| 0.05 to 5 | 1 to 10 |  | CCn1c2c(c(=O)c3cc(F)ccc31)C(=O)n1cccc1-2 [Compound 104a, 4-Ethyl-7-fluoro-9H-pyrrolizino[1,2-b]quinoline-9,10(4H)-dione] | 0.05 to 5 | < 0.05 | 0.05 to 5 | 0.05 to 5 | 0.05 to 5 | 0.05 to 5 |  |  |  |  |  |  |
|  | 1 to 10 | 0.05 to 5 | Cc1cc(C)c2nc3c(c(O)c2c1)-c1cccn1C3=O [Compound 780b, 11-hydroxy-7,9-dimethyl-5H-pyrrolizino[2,1-b]quinolin-5-one] |  |  |  |  |  |  | 0.05 to 5 | 0.05 to 5 | 0.05 to 5 | 0.05 to 5 | 0.05 to 5 | 0.05 to 5 |
|  | 1 to 10 | 0.05 to 5 | Cc1ccc(C)c2c(O)c3c(nc12)C(=O)n1cccc1-3 [Compound 783b, 11-hydroxy-7,10-dimethyl-5H-pyrrolizino[2,1-b]quinolin-5-one] |  |  |  |  |  |  | 0.05 to 5 | 0.05 to 5 | 0.05 to 5 | 0.05 to 5 | 0.05 to 5 | 0.05 to 5 |
|  | 1 to 10 | 0.05 to 5 | Cc1ccc2c(O)c3c(nc2c1)C(=O)n1cccc1-3 [Compound 778b, 11-hydroxy-8-methyl-5H-pyrrolizino[2,1-b]quinolin-5-one] |  |  |  |  |  |  | 0.05 to 5 | 0.05 to 5 | 0.05 to 5 | 0.05 to 5 | 0.05 to 5 | 0.05 to 5 |
| 0.05 to 5 | 1 to 10 |  | O=C1c2c(nc3cc(F)ccc3c2OCc2cccc(Cl)c2)-c2cccn21 [Compound 497b, 9-((3-chlorobenzyl)oxy)-6-fluoro-10H-pyrrolizino[1,2-b]quinolin-10-one] | 0.05 to 5 | 0.05 to 5 | 0.05 to 5 | 0.05 to 5 | 0.05 to 5 | 0.05 to 5 |  |  |  |  |  |  |
| 0.05 to 5 | 10 to 50 |  | O=C1c2c(n(Cc3ccccc3F)c3cccc(Cl)c3c2=O)-c2cccn21 [Compound 480a, 8-Chloro-4-(2-fluorobenzyl)-9H-pyrrolizino[1,2-b]quinoline-9,10(4H)-dione] | 0.05 to 5 | 0.05 to 5 | 0.05 to 5 | < 0.05 | 0.05 to 5 | 0.05 to 5 |  |  |  |  |  |  |
|  | 1 to 10 | 0.05 to 5 | CCOCCCOc1c2c(nc3ccccc13)C(=O)n1cccc1-2 [Compound 791b, 11-(3-ethoxypropoxy)-5H-pyrrolizino[2,1-b]quinolin-5-one] |  |  |  |  |  |  | 0.05 to 5 | 0.05 to 5 | 0.05 to 5 | 0.05 to 5 | 0.05 to 5 | 0.05 to 5 |
| 5 to 20 | 1 to 10 |  | CC(C)n1c2c(c(=O)c3cc(F)ccc31)C(=O)n1cccc1-2 [Compound 108a, 7-Fluoro-4-isopropyl-9H-pyrrolizino[1,2-b]quinoline-9,10(4H)-dione] | 0.05 to 5 | 0.05 to 5 | 0.05 to 5 | 0.05 to 5 | 0.05 to 5 | 0.05 to 5 |  |  |  |  |  |  |
| 0.05 to 5 | 0.1 to 1 |  | C=CCOc1c2c(nc3ccc(F)cc13)-c1cccn1C2=O [Compound 109b, 9-(allyloxy)-7-fluoro-10H-pyrrolizino[1,2-b]quinolin-10-one] | 0.05 to 5 | 0.05 to 5 | 0.05 to 5 | 0.05 to 5 | 0.05 to 5 | 0.05 to 5 |  |  |  |  |  |  |
| 0.05 to 5 | 1 to 10 |  | C=CCOc1c2c(nc3cc(N4CCNCC4)c(F)cc13)-c1cccn1C2=O [Compound 349b, 9-(allyloxy)-7-fluoro-6-(piperazin-1-yl)-10H-pyrrolizino[1,2-b]quinolin-10-one] | 0.05 to 5 | 0.05 to 5 | 0.05 to 5 | 0.05 to 5 | 0.05 to 5 | 0.05 to 5 |  |  |  |  |  |  |
| 0.05 to 5 | 1 to 10 |  | O=C1c2c(nc3cc(F)ccc3c2OCc2cccc(F)c2)-c2cccn21 [Compound 491b, 6-fluoro-9-((3-fluorobenzyl)oxy)-10H-pyrrolizino[1,2-b]quinolin-10-one] | 0.05 to 5 | 0.05 to 5 | 0.05 to 5 | 0.05 to 5 | 0.05 to 5 | 0.05 to 5 |  |  |  |  |  |  |

| Compound | IC50 [3, 11] [mM] | IC50 [7] [µM] | IC50 ([3]; HT-1080 cells, 48 h, CCK-8) [mM] | IC50 [1, 8] [mM] | IC50 (BHK-21 cells; [9]) [mM] | IC50 [2, 10] [mM] | IC50 [4, 12] [mM] | IC50 [5, 13] [mM] | IC50 [6, 14] [mM] | IC50 [1, 15] [mM] | IC50 (BHK-21 cells; 48 h, CCK-8) [mM] | IC50 [2, 16] [mM] | IC50 ([4]; RAT-iCell-C002 cells, CCK-8) [mM] | IC50 ([5]; LX-2, 48 h, LX-2 cells, CCK-8) [mM] | IC50 ([6]; HFL1 cells, 48 h, CCK-8) [mM] |
| --- | --- | --- | --- | --- | --- | --- | --- | --- | --- | --- | --- | --- | --- | --- | --- |
| O=C1c2nc3ccccc3c(OCCCCN3CCCCC3)c2-c2cccn21 [Compound 788b, 11-(4-(piperidin-1-yl)butoxy)-5H-pyrrolizino[2,1-b]quinolin-5-one] |  | 1 to 10 | 0.05 to 5 |  |  |  |  |  |  | 0.05 to 5 | 0.05 to 5 | 0.05 to 5 | 0.05 to 5 | 0.05 to 5 | 0.05 to 5 |
| O=C1c2c([nH]c3cc(N4CCNCC4)c(Cl)cc3c2=O)-c2cccn21 [Compound 373a, 7-Chloro-6-(piperazin-1-yl)-9H-pyrrolizino[1,2-b]quinoline-9,10(4H)-dione] | 0.05 to 5 | 0.1 to 1 |  | 0.05 to 5 | 0.05 to 5 | 0.05 to 5 | 0.05 to 5 | 0.05 to 5 | 0.05 to 5 |  |  |  |  |  |  |
